Laboratory results: the supplement of paper PMC12463676, “Small-molecule dissolution of stress granules by redox modulation benefits ALS models” (Nature Chemical Biology, 2025)

Tests used:
lipoamide = compound: NC(=O)CCCCC1CCSS1 [lipoamide]; experiment: thermal stability z-score vs DMSO; higher = more thermally stabilized by treatment; conditions: HeLa, lipoamide concentration 100 µM
Experimental: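 Cellular thermal proteome profiling in HeLa cells. Cells were treated with 100 µM lipoamide for 1 h, with or without 1 mM arsenate for a further 1 h, then heated to ten temperatures (37-66.3 °C), and soluble protein was quantified by TMT mass spectrometry relative to 0.1% DMSO controls. The thermal stability score (sum of log2 fold changes minus the abundance score) was transformed to a z-score; mean of n = 3 experiments.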

potassium arsenate = compound: O=[As]([O-])(O)O.[K+] [potassium arsenate]; experiment: as above; conditions: HeLa; arsenate concentration 1 mM
Experimental: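 Cellular thermal proteome profiling in HeLa cells treated with 1 mM arsenate for 1 h (DMSO pretreatment), heated to ten temperatures (37-66.3 °C). Soluble protein was quantified by TMT mass spectrometry relative to DMSO controls; the thermal stability score was transformed to a z-score; mean of n = 3 experiments.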

[1] = arsenate co-treatment: 1 mM arsenate 1 h
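Also: each temperature applied for 3 min, abundance score taken as mean log2 fold change at the two lowest temperatures, z-score obtained by mean subtraction and division by SD.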

UniProt Q13444, sequence (Q13444 whole entry): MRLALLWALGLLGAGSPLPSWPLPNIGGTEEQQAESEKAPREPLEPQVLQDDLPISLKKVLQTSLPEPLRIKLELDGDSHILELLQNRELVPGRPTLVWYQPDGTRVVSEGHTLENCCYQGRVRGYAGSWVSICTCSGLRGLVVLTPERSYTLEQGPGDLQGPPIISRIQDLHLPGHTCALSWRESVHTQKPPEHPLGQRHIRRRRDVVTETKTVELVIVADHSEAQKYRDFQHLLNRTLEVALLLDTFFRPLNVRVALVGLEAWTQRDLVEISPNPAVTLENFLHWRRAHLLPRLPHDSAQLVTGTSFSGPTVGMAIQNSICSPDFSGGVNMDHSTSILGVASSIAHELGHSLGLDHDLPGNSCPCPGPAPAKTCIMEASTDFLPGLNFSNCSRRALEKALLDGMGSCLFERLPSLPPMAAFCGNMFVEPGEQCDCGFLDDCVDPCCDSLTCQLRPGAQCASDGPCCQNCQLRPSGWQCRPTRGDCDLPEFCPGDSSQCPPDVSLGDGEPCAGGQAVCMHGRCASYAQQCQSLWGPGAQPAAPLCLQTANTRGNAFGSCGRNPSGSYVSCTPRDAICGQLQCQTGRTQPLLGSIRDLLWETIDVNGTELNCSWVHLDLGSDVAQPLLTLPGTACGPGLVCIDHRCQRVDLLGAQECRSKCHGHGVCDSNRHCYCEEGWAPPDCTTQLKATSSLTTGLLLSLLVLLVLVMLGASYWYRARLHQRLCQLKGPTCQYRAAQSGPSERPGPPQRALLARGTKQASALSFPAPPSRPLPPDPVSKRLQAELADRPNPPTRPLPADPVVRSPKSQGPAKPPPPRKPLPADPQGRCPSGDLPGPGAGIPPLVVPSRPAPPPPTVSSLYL
UniProt O60921, sequence (O60921 whole entry): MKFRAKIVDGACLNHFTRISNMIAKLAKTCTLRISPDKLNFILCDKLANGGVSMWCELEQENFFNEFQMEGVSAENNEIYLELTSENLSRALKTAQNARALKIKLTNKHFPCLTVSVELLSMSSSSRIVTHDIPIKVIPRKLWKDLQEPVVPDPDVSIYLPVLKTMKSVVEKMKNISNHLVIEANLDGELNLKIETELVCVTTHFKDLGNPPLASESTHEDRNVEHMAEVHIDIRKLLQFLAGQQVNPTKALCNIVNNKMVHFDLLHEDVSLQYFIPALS
UniProt O60256, sequence (O60256 whole entry): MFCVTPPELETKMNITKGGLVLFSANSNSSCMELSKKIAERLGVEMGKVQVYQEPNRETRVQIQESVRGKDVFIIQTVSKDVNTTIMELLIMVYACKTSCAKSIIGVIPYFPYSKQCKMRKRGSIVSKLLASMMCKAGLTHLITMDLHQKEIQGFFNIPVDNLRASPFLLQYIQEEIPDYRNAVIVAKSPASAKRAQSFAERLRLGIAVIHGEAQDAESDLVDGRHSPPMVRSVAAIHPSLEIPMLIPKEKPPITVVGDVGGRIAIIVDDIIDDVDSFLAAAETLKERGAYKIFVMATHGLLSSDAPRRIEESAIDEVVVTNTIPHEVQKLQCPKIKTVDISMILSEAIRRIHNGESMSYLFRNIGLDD
UniProt Q9BW85, sequence (Q9BW85 whole entry): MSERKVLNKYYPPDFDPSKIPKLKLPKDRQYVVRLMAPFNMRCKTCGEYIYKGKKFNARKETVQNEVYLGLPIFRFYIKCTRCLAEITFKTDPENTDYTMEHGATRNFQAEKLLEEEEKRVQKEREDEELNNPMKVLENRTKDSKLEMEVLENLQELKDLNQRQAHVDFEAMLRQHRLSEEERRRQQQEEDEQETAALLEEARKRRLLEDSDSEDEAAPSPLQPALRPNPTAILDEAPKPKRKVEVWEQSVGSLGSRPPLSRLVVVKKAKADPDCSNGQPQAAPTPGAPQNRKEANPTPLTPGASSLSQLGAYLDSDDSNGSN
UniProt P29401, sequence (P29401 whole entry): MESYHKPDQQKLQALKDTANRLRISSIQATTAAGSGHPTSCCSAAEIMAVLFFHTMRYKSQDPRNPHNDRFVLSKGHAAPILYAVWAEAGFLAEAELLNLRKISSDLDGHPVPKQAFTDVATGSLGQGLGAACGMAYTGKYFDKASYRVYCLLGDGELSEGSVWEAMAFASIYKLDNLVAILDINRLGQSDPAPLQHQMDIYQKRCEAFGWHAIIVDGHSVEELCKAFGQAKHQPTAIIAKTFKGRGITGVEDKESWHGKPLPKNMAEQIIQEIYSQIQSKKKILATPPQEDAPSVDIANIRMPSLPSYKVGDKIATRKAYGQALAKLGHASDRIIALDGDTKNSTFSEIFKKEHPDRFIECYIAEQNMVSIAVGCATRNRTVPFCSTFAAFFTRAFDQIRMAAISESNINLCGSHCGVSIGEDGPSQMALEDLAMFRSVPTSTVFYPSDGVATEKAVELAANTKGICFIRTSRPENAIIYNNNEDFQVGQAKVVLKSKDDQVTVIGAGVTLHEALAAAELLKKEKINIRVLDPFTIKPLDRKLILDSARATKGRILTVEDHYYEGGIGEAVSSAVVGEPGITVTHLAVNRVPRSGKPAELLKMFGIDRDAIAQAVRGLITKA
UniProt Q6UN15, sequence (Q6UN15 whole entry): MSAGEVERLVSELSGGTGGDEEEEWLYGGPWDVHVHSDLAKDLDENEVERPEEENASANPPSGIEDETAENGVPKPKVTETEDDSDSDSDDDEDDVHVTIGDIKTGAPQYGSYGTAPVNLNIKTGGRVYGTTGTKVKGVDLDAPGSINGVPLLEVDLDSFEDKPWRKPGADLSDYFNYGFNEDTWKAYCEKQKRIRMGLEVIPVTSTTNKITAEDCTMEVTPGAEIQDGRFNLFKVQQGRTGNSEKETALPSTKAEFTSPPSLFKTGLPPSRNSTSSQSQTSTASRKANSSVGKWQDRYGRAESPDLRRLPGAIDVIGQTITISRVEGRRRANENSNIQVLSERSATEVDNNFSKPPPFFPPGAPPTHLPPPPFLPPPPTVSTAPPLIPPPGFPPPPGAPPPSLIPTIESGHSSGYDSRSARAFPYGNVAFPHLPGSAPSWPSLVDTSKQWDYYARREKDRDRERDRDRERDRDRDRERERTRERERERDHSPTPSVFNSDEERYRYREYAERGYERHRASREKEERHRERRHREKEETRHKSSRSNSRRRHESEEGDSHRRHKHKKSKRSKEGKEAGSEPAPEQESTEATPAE
UniProt Q96BZ8, sequence (Q96BZ8 whole entry): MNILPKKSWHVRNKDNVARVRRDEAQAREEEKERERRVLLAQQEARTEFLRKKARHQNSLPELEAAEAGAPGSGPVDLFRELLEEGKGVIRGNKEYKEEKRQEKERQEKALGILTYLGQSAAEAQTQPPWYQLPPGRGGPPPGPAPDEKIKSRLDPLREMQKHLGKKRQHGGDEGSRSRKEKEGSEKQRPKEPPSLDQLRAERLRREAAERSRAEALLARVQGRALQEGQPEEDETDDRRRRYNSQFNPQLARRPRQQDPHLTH
UniProt Q9P016, sequence (Q9P016 whole entry): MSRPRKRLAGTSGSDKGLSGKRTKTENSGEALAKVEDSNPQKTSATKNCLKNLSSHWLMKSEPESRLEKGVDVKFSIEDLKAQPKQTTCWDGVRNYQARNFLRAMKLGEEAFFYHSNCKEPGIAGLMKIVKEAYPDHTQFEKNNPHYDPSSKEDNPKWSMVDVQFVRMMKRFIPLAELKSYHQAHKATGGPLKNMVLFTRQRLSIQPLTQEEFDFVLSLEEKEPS
UniProt Q96MH6, sequence (Q96MH6 whole entry): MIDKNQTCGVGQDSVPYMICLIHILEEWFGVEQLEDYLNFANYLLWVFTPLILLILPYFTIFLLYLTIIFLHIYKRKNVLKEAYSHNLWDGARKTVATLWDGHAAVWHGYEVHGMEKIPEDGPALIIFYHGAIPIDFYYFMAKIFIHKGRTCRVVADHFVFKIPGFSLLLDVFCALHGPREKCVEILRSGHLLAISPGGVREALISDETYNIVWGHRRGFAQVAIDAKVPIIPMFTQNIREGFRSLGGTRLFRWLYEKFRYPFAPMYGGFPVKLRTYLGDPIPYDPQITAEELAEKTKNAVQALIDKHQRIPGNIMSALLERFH
UniProt O00560, sequence (O00560 whole entry): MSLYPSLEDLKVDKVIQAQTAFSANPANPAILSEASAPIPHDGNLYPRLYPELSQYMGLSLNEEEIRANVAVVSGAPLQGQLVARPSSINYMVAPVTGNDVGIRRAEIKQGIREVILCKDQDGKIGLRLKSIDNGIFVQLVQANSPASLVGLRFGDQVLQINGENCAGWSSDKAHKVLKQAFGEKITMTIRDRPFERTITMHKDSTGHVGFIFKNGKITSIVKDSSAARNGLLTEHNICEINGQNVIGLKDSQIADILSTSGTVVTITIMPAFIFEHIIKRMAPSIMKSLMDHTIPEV
UniProt Q5T160, sequence (Q5T160 whole entry): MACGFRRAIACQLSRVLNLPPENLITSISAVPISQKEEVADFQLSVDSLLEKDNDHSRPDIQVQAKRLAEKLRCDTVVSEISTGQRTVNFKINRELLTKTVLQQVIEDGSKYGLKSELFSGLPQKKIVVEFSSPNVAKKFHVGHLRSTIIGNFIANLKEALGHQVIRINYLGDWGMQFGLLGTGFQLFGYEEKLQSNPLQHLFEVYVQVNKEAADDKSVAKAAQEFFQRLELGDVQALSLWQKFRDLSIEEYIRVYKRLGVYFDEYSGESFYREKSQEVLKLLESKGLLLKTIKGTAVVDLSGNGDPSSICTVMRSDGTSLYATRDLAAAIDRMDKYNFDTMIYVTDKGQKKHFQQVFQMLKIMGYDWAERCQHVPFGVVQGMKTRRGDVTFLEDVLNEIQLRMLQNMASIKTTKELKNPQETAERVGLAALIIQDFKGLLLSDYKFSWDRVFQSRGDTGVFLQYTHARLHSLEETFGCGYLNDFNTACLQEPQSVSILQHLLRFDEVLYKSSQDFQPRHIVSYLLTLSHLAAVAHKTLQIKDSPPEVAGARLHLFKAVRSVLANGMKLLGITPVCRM
UniProt Q9NRP4, sequence (Q9NRP4 whole entry): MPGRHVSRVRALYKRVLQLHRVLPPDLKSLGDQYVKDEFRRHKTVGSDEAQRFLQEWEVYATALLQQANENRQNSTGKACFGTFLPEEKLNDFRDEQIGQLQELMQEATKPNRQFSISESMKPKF

Work on BLZF1 (UniProt Q9H2G9) yielded a thermal stability z-score (lipoamide; [1]) of -0.0966, a thermal stability z-score (lipoamide; arsenate co-treatment: none) of 0.122 and a thermal stability z-score (potassium arsenate) of -0.103.
In the case of NEDD4L (UniProt Q96PU5), the thermal stability z-score (lipoamide; [1]) is reported as -0.314, the thermal stability z-score (lipoamide; arsenate co-treatment: none) is reported as -0.354 and the thermal stability z-score (potassium arsenate) is reported as 0.0653.
Work on EFCAB14 (UniProt O75071) yielded a thermal stability z-score (lipoamide; [1]) of -0.971, a thermal stability z-score (lipoamide; arsenate co-treatment: none) of -1.74 and a thermal stability z-score (potassium arsenate) of 0.262.
With FIP1L1 (UniProt Q6UN15) the thermal stability z-score (lipoamide; [1]) was 0.903, the thermal stability z-score (lipoamide; arsenate co-treatment: none) was 0.265 and the thermal stability z-score (potassium arsenate) was -1.73.
Target GTPBP4 (UniProt Q9BZE4) has a thermal stability z-score (lipoamide; [1]) of -0.6, a thermal stability z-score (lipoamide; arsenate co-treatment: none) of 0.00531 and a thermal stability z-score (potassium arsenate) of -1.
In the case of THYN1 (UniProt Q9P016), the thermal stability z-score (lipoamide; [1]) is reported as 0.476, the thermal stability z-score (lipoamide; arsenate co-treatment: none) is reported as 0.00625 and the thermal stability z-score (potassium arsenate) is reported as -0.603.
Target PREB (UniProt Q9HCU5) has a thermal stability z-score (lipoamide; [1]) of -0.337, a thermal stability z-score (lipoamide; arsenate co-treatment: none) of -0.353 and a thermal stability z-score (potassium arsenate) of -0.0461.
Work on CBX8 (UniProt Q9HC52) yielded a thermal stability z-score (lipoamide; [1]) of 0.035, a thermal stability z-score (lipoamide; arsenate co-treatment: none) of 0.14 and a thermal stability z-score (potassium arsenate) of -0.0579.
PCK2 (UniProt Q16822) gave a thermal stability z-score (lipoamide; [1]) of -0.107, a thermal stability z-score (lipoamide; arsenate co-treatment: none) of -0.0889 and a thermal stability z-score (potassium arsenate) of 0.352.
With CDCA3 (UniProt Q99618) the thermal stability z-score (lipoamide; [1]) was 0.196, the thermal stability z-score (lipoamide; arsenate co-treatment: none) was 0.0335 and the thermal stability z-score (potassium arsenate) was -0.233.
PIBF1 (UniProt Q8WXW3) showed a thermal stability z-score (lipoamide; [1]) of -0.108, a thermal stability z-score (lipoamide; arsenate co-treatment: none) of -0.184 and a thermal stability z-score (potassium arsenate) of -0.0727.
Work on PIGO (UniProt Q8TEQ8) yielded a thermal stability z-score (lipoamide; [1]) of -1.23, a thermal stability z-score (lipoamide; arsenate co-treatment: none) of -1.1 and a thermal stability z-score (potassium arsenate) of -0.779.
With INPP5F (UniProt Q9Y2H2) the thermal stability z-score (lipoamide; [1]) was -0.128, the thermal stability z-score (lipoamide; arsenate co-treatment: none) was -0.261 and the thermal stability z-score (potassium arsenate) was 0.13.
For SDHAF3 (UniProt Q9NRP4), the thermal stability z-score (lipoamide; [1]) was -0.644, the thermal stability z-score (lipoamide; arsenate co-treatment: none) was -0.535 and the thermal stability z-score (potassium arsenate) was -0.145.
ADAM15 (UniProt Q13444) showed a thermal stability z-score (lipoamide; [1]) of -1.37, a thermal stability z-score (lipoamide; arsenate co-treatment: none) of -1.49 and a thermal stability z-score (potassium arsenate) of -0.1.
In the case of RARS2 (UniProt Q5T160), the thermal stability z-score (lipoamide; [1]) is reported as 0.0904, the thermal stability z-score (lipoamide; arsenate co-treatment: none) is reported as -0.0472 and the thermal stability z-score (potassium arsenate) is reported as 0.328.
For FANCD2 (UniProt Q9BXW9), the thermal stability z-score (lipoamide; [1]) was -0.812, the thermal stability z-score (lipoamide; arsenate co-treatment: none) was -0.0726 and the thermal stability z-score (potassium arsenate) was -0.953.
For SDCBP (UniProt O00560), the thermal stability z-score (lipoamide; [1]) was 0.541, the thermal stability z-score (lipoamide; arsenate co-treatment: none) was 0.425 and the thermal stability z-score (potassium arsenate) was 0.364.
For RANBP10 (UniProt Q6VN20), the thermal stability z-score (lipoamide; [1]) was 0.521, the thermal stability z-score (lipoamide; arsenate co-treatment: none) was 0.385 and the thermal stability z-score (potassium arsenate) was 0.3.
Work on PRDX5 (UniProt P30044) yielded a thermal stability z-score (lipoamide; [1]) of -0.275, a thermal stability z-score (lipoamide; arsenate co-treatment: none) of 0.138 and a thermal stability z-score (potassium arsenate) of -0.761.
Work on OXCT1 (UniProt P55809) yielded a thermal stability z-score (lipoamide; [1]) of -0.159, a thermal stability z-score (lipoamide; arsenate co-treatment: none) of -0.108 and a thermal stability z-score (potassium arsenate) of -1.12.
Target ARL6IP5 (UniProt O75915) has a thermal stability z-score (lipoamide; [1]) of -0.0796, a thermal stability z-score (lipoamide; arsenate co-treatment: none) of 0.285 and a thermal stability z-score (potassium arsenate) of -0.256.
Target PRKRA (UniProt O75569) has a thermal stability z-score (lipoamide; [1]) of -0.115, a thermal stability z-score (lipoamide; arsenate co-treatment: none) of -0.0608 and a thermal stability z-score (potassium arsenate) of -0.312.
In the case of TMEM68 (UniProt Q96MH6), the thermal stability z-score (lipoamide; [1]) is reported as 0.361, the thermal stability z-score (lipoamide; arsenate co-treatment: none) is reported as -0.287 and the thermal stability z-score (potassium arsenate) is reported as -0.552.
UAP1L1 (UniProt Q3KQV9) showed a thermal stability z-score (lipoamide; [1]) of 0.536, a thermal stability z-score (lipoamide; arsenate co-treatment: none) of 0.556 and a thermal stability z-score (potassium arsenate) of -0.793.
Work on LYSMD1 (UniProt Q96S90) yielded a thermal stability z-score (lipoamide; [1]) of 1.23, a thermal stability z-score (lipoamide; arsenate co-treatment: none) of 0.621 and a thermal stability z-score (potassium arsenate) of 0.777.
PRPSAP2 (UniProt O60256) showed a thermal stability z-score (lipoamide; [1]) of -0.04, a thermal stability z-score (lipoamide; arsenate co-treatment: none) of -0.392 and a thermal stability z-score (potassium arsenate) of -0.637.
CCDC174 (UniProt Q6PII3) gave a thermal stability z-score (lipoamide; [1]) of -0.407, a thermal stability z-score (lipoamide; arsenate co-treatment: none) of -0.734 and a thermal stability z-score (potassium arsenate) of -0.984.
For MAP4 (UniProt P27816), the thermal stability z-score (lipoamide; [1]) was 0.0996, the thermal stability z-score (lipoamide; arsenate co-treatment: none) was 0.243 and the thermal stability z-score (potassium arsenate) was -0.384.
GGA2 (UniProt Q9UJY4) showed a thermal stability z-score (lipoamide; [1]) of -0.076, a thermal stability z-score (lipoamide; arsenate co-treatment: none) of -0.0378 and a thermal stability z-score (potassium arsenate) of -0.335.
With DNAJC3 (UniProt Q13217) the thermal stability z-score (lipoamide; [1]) was -4.01, the thermal stability z-score (lipoamide; arsenate co-treatment: none) was -3.61 and the thermal stability z-score (potassium arsenate) was 0.823.
CHMP4C (UniProt Q96CF2) was tested, and the thermal stability z-score (lipoamide; [1]) was -0.0236, the thermal stability z-score (lipoamide; arsenate co-treatment: none) was -0.694 and the thermal stability z-score (potassium arsenate) was -0.789.
TFIP11 (UniProt Q9UBB9) gave a thermal stability z-score (lipoamide; [1]) of -0.0949, a thermal stability z-score (lipoamide; arsenate co-treatment: none) of -0.0621 and a thermal stability z-score (potassium arsenate) of -0.187.
TYW3 (UniProt Q6IPR3) was tested, and the thermal stability z-score (lipoamide; [1]) was -0.419, the thermal stability z-score (lipoamide; arsenate co-treatment: none) was 0.332 and the thermal stability z-score (potassium arsenate) was -0.177.
CCDC94 (UniProt Q9BW85) showed a thermal stability z-score (lipoamide; [1]) of -0.377, a thermal stability z-score (lipoamide; arsenate co-treatment: none) of -0.352 and a thermal stability z-score (potassium arsenate) of -0.951.
MRPS7 (UniProt Q9Y2R9) gave a thermal stability z-score (lipoamide; [1]) of -1.12, a thermal stability z-score (lipoamide; arsenate co-treatment: none) of -0.496 and a thermal stability z-score (potassium arsenate) of 0.102.
PSEN1 (UniProt P49768) gave a thermal stability z-score (lipoamide; [1]) of 1.23, a thermal stability z-score (lipoamide; arsenate co-treatment: none) of -2 and a thermal stability z-score (potassium arsenate) of -2.52.
Target MAN2A1 (UniProt Q16706) has a thermal stability z-score (lipoamide; [1]) of -0.502, a thermal stability z-score (lipoamide; arsenate co-treatment: none) of -0.428 and a thermal stability z-score (potassium arsenate) of -0.264.
NMRAL1 (UniProt Q9HBL8) was tested, and the thermal stability z-score (lipoamide; [1]) was 1.43, the thermal stability z-score (lipoamide; arsenate co-treatment: none) was 1.45 and the thermal stability z-score (potassium arsenate) was 1.37.
TXLNG (UniProt Q9NUQ3) showed a thermal stability z-score (lipoamide; [1]) of 0.386, a thermal stability z-score (lipoamide; arsenate co-treatment: none) of 0.0198 and a thermal stability z-score (potassium arsenate) of 1.86.
HUS1 (UniProt O60921) showed a thermal stability z-score (lipoamide; [1]) of -0.436, a thermal stability z-score (lipoamide; arsenate co-treatment: none) of -0.56 and a thermal stability z-score (potassium arsenate) of -0.902.
Work on EPPK1 (UniProt P58107) yielded a thermal stability z-score (lipoamide; [1]) of -0.00734, a thermal stability z-score (lipoamide; arsenate co-treatment: none) of 0.0541 and a thermal stability z-score (potassium arsenate) of -0.359.
For SETMAR (UniProt Q53H47), the thermal stability z-score (lipoamide; [1]) was -0.298, the thermal stability z-score (lipoamide; arsenate co-treatment: none) was -0.25 and the thermal stability z-score (potassium arsenate) was -0.122.
For LENG1 (UniProt Q96BZ8), the thermal stability z-score (lipoamide; [1]) was 0.493, the thermal stability z-score (lipoamide; arsenate co-treatment: none) was 0.509 and the thermal stability z-score (potassium arsenate) was 0.544.
TKT (UniProt P29401) was tested, and the thermal stability z-score (lipoamide; [1]) was 0.488, the thermal stability z-score (lipoamide; arsenate co-treatment: none) was 0.386 and the thermal stability z-score (potassium arsenate) was -0.045.
PSMA6 (UniProt P60900) was tested, and the thermal stability z-score (lipoamide; [1]) was 0.746, the thermal stability z-score (lipoamide; arsenate co-treatment: none) was 0.795 and the thermal stability z-score (potassium arsenate) was 0.345.
In the case of USF1 (UniProt P22415), the thermal stability z-score (lipoamide; [1]) is reported as 0.0459, the thermal stability z-score (lipoamide; arsenate co-treatment: none) is reported as -0.169 and the thermal stability z-score (potassium arsenate) is reported as 0.149.
FAM46A (UniProt Q96IP4) showed a thermal stability z-score (lipoamide; [1]) of -0.0743, a thermal stability z-score (lipoamide; arsenate co-treatment: none) of 0.0046 and a thermal stability z-score (potassium arsenate) of -0.0735.
Work on NAPG (UniProt Q99747) yielded a thermal stability z-score (lipoamide; [1]) of -0.212, a thermal stability z-score (lipoamide; arsenate co-treatment: none) of -0.012 and a thermal stability z-score (potassium arsenate) of 0.0503.
